Data from patent publication EP2272817A1, “PAI-1 INHIBITOR” (Institute of Medicinal Molecular Design, Inc., priority 2008, dated 2009).

Assays:
[1] = target: T1, recombinant human PAI-1 (Homo sapiens, UniProt P05121); test: Test Example 2: Human PAI-1 Inhibitory Activity (pH 7.4 HEPES buffer, 10 minutes incubation with two-chain tPA); type: biochemical; parameters: purchased Molecular Innovations, Inc; settings: read-out: Inhibition Rate of PAI-1 Activity (%)
Procedure: 0.1 M HEPES, 0.1 M NaCl. 1 mM EDTA. 0.1 % Polyethylene glycol 8,000 (Hampton Research Corporation),
2 mM Dimethyldecylphoshine oxide [Apo-10] (Fluka Corporation)

[2] = target: T1, recombinant human PAI-1; test: biochemical; settings: for inhibition at 5 µM: read-out: Inhibition Rate of PAI-1 Activity (%), Compound Concentration 5µM; for inhibition at 10 µM: read-out: Inhibition Rate of PAI-1 Activity (%), Compound Concentration 10µM; for inhibition at 25 µM: read-out: Inhibition Rate of PAI-1 Activity (%), Compound Concentration 25µM
[3] = target: T1, recombinant human PAI-1; test: Test Example 4: Human PAI-1 Inhibitory Activity (amount of PAI-1 bound to plate-coated one-chain tPA, ELISA); type: biochemical; parameters: purchased Molecular Innovations, Inc; settings: human PAI-1 bound to tPA, read-out: Inhibition Rate of PAI-1 Activity (%); for inhibition at 0.3 µM: Compound Concentration 0.3µM; for inhibition at 1 µM: Compound Concentration 1µM; for inhibition at 3 µM: Compound Concentration 3µM
Procedure: 100 µl of tPA solution, where one-chain recombinant tPA (hereinafter reffered to as tPA; American diagnostica, inc.) had been diluted with Buffer A to acheive a concentration of 10 µg/ml, was added to each well of a 96-well plate (Nunc Maxisorp), and the plate was incubated for one night at 4 °C to be coated with tPA. Then, after suction of tPA solution from the 96-well plate, the plate was rinsed successively with Buffer A and Buffer B. To Buffer B, solutions of the compound according to the present invention dissolved with DMSO (final DMSO concentration: 0.2 %) and recombinant human PAI-1 (Molecular Innovations, Inc.) were added. The mixtures were blended so that the final concentrations would be 0.1 to 3.0 µM and 50 ng/ml respectively, and were incubated for 15 minutes on ice. These mixed solutions were added to the rinsed 96-well plate at 100 µl/well, and incubated for 60 minutes at room temperature. To prepare a calibration curve, PAI-1 solutions without the compound according to the present invention (solutions where the final concentrations being 100, 50, 25, 12.5, 6.25, 3.13, or 1.56 ng/ml PAI-1) were added at 100 µl/well, and the plate was incubated for 60 minutes at room temperature, as standard.
After incubation, the reaction mixture was removed by suction, and each well was rinsed with Wash Buffer. Next, anti-human PAI-1 monoclonal antibody (PROGEN Inc.) diluted with Buffer C to be 3.0 µg/ml was added to the 96-well plate at 100 µl/well, and the plate was incubated for 1 hour at room temperature. After rinsing each well with Wash Buffer, alkaline phosphatase-labeled goat anti-mouse IgG (H+L) (Jackson ImmunoResearch, Inc.) diluted with Buffer D to be 0.12 µg/ml was added at 100 µl/well, and the plate was incubated for 1 hour at room temperature. After rinsing each well with Wash Buffer, 1.0 mg/ml p-Nitrophenyl Phosphate (SIGMA) was added to the 96-well plate at 100 µl/well to start the reaction. After 30 to 60 minutes, 25 µl of 0.5 N NaOH was added to stop the reaction, and the absorbance was measured at 405 nm using a multiplate reader (GENios; TECAN G.M.B.H.).
Based on the calibration curve prepared from the standard wells, amounts of PAI-1 bound to tPA in the wells that had been treated with the compound according to the present invention were calculated, and the PAI-1 inhibition rates by the compounds according to the present invention were obtained by the following equation. [API-1InhibitionRate(%)] = [1-(amountofPAI-1boundtotPaonthewellbytreatmentwiththecompondaccordingtothepresentinvention)/(amountofPAI-1boundtotPAonthewellbytreatmentwithPAI-1solutionnotincledingthecompondaccordingtotheinvention(solution having the final concentration of 50 nb/ml PAI-1)] × 100 [formula] • <Composition of Buffer A> 0.1 M Tris-HCl, 150 mM NaCl, pH 7.7 • <Composition of Buffer B> 50 mM sodium phosphate, 0.1 M NaCl, 1 mM EDTA, pH 6.6 • <Composition of Buffer C> 50 mM sodium phosphate, 100 mM NaCl, pH 7.4 • <Composition of Buffer D> 0.01 M Tris-HCl, 0.25 M NaCl, pH 8.0 • <Compositon of Wash Buffer> 0.05 % Tween 20, 0.1 % BSA in Buffer A • <Composition of p-Nitrophenyl Phosphate solution> 1 M Diethanolamine 0.5 mM MgCl2, p-Nitrophenyl phosphate, pH 9.8

[4] = target: T2, recombinant rat PAI-1 (Rattus norvegicus, UniProt P20961); test: biochemical; settings: read-out: Inhibition Rate of PAI-1 Activity (%)
T2 sequence (P20961 24-402): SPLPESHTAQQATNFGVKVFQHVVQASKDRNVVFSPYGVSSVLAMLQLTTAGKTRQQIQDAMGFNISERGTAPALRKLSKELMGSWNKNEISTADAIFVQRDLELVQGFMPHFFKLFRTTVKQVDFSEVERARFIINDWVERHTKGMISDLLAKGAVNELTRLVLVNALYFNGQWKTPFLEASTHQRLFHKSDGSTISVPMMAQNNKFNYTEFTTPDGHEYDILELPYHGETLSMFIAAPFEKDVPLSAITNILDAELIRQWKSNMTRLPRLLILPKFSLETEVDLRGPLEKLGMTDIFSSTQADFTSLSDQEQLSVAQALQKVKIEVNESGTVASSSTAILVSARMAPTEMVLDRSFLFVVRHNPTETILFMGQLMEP

T1 sequence (P05121 24-402): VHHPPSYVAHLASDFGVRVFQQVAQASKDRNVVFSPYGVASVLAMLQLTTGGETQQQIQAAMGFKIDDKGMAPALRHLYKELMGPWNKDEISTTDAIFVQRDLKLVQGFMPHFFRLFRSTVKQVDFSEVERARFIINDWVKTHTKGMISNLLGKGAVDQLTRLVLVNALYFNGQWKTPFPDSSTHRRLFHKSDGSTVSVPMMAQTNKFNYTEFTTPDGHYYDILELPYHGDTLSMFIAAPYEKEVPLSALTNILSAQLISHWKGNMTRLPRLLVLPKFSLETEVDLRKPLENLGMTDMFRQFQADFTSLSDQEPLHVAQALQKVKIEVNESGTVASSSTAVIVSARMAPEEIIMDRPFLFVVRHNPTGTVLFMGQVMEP

Structure (SMILES)	inhibition at 0.1 µM [1] [%]	inhibition at 0.3 µM [1] [%]	inhibition at 1 µM [1] [%]	inhibition at 3 µM [1] [%]	inhibition at 5 µM [2] [%]	inhibition at 10 µM [2] [%]	inhibition at 25 µM [2] [%]	inhibition at 0.3 µM [3] [%]	inhibition at 1 µM [3] [%]	inhibition at 3 µM [3] [%]	inhibition at 0.3 µM [4] [%]	inhibition at 1 µM [4] [%]	inhibition at 3 µM [4] [%]	inhibition at 10 µM [4] [%]
CCCOc1ccc(N(Cc2ccc(C(C)(C)C)cc2)C(=O)C(=O)O)c(-c2ccc(OC(F)(F)F)cc2)c1 [Compound 198]	11	8	33	> 99	79	95	85	6	4	33	4	12	84	89
CC(C)(C)c1ccc(CN(C(=O)C(=O)O)c2cc(-c3ccc(OC(F)(F)F)cc3)cc(C(F)(F)F)c2)cc1 [Compound 139]	0	3	30	97	25	59	66	6	10	32	0	22	85	88
CCCCc1ccc(CN(C(=O)C(=O)O)c2ccc(-c3ccc(C(C)(C)C)cc3)cc2)cc1 [Compound 206]	3	13	66	> 99	78	92	89	0	17	40	3	29	90	88
O=C(O)CCc1cc(-c2ccc(OC(F)(F)F)cc2)ccc1OCCCCc1ccccc1 [Compound 102]	0	7	28	94	43	74	97	0	0	83	0	12	55	93
CC(C)(C)c1ccc(CN(C(=O)C(=O)O)c2cccc(-c3ccc(OC(F)(F)F)cc3)c2)cc1 [Compound 130]	0	2	18	84	82	96	–	1	3	15	1	16	50	> 99
CC(C)(C)c1ccc(CN(C(=O)C(=O)O)c2ccc(Cl)c(-c3ccc(OC(F)(F)F)cc3)c2)cc1 [Compound 186]	0	9	22	> 99	76	91	–	15	37	53	2	27	83	89
